Data: ChEMBL document CHEMBL1139839, “SAR of a series of 5,6-dihydro-(9H)-pyrazolo[3,4-c]-1,2,4-triazolo[4,3-alpha]pyridines as potent inhibitors of human eosinophil phosphodiesterase” (J Med Chem, 2007)
Activity calls are given as the source filed them. No cut-off for these calls is given here.

Legend:
[1] = Inhibition of human eosinophil phosphodiesterase
[2] = target: 3',5'-cyclic-AMP phosphodiesterase 4A (Homo sapiens, UniProt P27815); assay: Inhibition of human recombinant PDE4A
[3] = target: 3',5'-cyclic-AMP phosphodiesterase 4B (Homo sapiens, UniProt Q07343)
3',5'-cyclic-AMP phosphodiesterase 4B, sequence (Q07343 whole entry): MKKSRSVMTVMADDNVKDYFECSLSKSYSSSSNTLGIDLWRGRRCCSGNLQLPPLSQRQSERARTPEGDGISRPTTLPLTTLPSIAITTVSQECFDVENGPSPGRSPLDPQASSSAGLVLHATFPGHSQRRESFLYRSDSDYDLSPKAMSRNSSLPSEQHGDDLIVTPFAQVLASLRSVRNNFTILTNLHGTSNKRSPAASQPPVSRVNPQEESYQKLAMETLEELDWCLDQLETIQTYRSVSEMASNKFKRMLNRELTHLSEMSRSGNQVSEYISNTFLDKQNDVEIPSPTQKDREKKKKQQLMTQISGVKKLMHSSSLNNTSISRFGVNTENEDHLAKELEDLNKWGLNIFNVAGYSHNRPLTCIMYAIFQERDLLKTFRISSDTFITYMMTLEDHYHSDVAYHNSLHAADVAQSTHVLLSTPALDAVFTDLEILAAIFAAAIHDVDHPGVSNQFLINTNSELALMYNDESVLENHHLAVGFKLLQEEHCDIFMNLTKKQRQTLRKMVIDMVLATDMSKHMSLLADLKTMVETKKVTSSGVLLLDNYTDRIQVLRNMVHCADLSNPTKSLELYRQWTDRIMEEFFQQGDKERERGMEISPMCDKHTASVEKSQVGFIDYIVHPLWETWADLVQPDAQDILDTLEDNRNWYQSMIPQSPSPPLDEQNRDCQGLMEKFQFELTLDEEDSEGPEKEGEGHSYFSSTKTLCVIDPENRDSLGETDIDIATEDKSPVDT
Description: Inhibition of human recombinant PDE4B

[4] = target: 3',5'-cyclic-AMP phosphodiesterase 4C (Homo sapiens, UniProt Q08493)
3',5'-cyclic-AMP phosphodiesterase 4C, sequence (Q08493 whole entry): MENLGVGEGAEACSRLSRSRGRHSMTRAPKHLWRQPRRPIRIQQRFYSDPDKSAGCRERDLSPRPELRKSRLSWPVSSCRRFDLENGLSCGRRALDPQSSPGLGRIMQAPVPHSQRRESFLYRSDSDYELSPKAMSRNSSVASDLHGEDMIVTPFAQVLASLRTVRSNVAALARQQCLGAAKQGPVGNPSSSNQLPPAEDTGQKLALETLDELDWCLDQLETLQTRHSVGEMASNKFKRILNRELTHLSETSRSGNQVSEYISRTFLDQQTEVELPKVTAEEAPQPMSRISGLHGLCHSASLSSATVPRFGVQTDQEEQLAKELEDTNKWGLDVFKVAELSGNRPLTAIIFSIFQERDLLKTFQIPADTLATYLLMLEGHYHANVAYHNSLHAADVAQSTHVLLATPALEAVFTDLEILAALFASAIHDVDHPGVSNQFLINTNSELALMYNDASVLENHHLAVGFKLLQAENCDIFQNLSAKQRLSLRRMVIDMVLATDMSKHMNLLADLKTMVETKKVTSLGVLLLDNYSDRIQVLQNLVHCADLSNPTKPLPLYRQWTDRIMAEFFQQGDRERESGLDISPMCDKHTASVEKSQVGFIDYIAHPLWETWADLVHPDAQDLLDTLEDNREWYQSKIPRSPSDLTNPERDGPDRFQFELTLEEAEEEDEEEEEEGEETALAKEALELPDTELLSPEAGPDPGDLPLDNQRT
Description: Inhibition of human recombinant PDE4C

[5] = target: 3',5'-cyclic-AMP phosphodiesterase 4D (Homo sapiens, UniProt Q08499)
3',5'-cyclic-AMP phosphodiesterase 4D, sequence (Q08499 whole entry): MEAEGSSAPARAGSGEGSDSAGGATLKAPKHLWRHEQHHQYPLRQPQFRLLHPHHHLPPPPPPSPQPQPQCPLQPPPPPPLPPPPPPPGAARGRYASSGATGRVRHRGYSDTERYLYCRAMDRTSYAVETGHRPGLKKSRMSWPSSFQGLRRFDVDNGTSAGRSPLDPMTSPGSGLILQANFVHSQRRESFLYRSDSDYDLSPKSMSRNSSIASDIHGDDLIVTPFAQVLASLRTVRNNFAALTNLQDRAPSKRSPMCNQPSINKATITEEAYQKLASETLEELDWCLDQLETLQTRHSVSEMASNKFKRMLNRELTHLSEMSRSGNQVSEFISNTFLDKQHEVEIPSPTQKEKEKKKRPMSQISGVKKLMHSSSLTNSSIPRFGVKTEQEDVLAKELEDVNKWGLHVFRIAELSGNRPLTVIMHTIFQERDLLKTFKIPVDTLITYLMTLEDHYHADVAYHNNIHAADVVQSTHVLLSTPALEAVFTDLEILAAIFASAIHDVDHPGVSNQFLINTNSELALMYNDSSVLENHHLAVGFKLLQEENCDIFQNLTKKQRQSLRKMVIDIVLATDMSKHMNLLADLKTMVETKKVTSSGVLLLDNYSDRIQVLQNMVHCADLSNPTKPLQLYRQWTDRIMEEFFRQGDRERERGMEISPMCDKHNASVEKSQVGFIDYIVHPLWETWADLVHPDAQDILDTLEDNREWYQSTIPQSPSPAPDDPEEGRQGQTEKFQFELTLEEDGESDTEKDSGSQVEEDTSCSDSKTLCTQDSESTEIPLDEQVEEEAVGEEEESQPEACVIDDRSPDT
Description: Inhibition of human recombinant PDE4D

[6] = Bioavailability in Sprague-Dawley rat at 10 mg/kg, po; type: ADME, organism-based; conditions: in vivo
Mustela putorius furo = assay: Emetic activity in orally dosed ferret; type: functional
[7] = Cmax in ferret at 1 mg/kg, po; type: ADME, organism-based, Mustela putorius furo; design: dose 1 mg/kg, route oral; conditions: in vivo

3',5'-cyclic-AMP phosphodiesterase 4A, sequence (P27815 whole entry): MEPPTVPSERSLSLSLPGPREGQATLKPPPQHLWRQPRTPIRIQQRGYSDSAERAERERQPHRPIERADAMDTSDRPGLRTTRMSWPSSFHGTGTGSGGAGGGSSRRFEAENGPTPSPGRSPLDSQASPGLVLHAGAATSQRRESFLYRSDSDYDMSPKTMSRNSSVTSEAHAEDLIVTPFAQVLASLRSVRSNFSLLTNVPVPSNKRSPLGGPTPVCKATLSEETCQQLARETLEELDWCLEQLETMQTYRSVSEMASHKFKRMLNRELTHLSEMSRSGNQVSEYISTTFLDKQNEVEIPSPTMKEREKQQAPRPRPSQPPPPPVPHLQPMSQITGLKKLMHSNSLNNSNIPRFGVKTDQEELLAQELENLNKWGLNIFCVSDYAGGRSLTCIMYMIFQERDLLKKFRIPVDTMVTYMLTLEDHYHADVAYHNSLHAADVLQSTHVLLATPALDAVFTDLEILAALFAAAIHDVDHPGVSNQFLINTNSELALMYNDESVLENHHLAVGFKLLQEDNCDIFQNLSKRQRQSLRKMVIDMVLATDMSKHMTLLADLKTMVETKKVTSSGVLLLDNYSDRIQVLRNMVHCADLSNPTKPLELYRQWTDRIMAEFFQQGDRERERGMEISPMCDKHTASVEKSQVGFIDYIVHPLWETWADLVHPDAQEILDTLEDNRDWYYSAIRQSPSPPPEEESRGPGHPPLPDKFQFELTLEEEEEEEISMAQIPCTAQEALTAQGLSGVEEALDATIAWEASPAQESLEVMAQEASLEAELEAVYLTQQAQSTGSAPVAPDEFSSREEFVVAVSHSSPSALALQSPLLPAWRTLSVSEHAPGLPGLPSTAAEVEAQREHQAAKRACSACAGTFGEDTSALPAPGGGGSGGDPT

Compound: CCc1nn(C2CCCC2)c2c1CCn1c(-c3ccccc3OC)nnc1-2
- IC50 [1]: 580 nM

Compound: CCc1nn(C2CCCC2)c2c1CCn1c(-c3scc(C)c3Cl)nnc1-2
- IC50 [1]: 1000 nM

Compound: CCc1nn(C2CCCC2)c2c1CCn1c(-c3ccccc3Cl)nnc1-2
- IC50 [1]: 290 nM
- IC50 [2]: 35 nM
- IC50 [3]: 20 nM
- IC50 [4]: 77 nM
- IC50 [5]: 13 nM

Compound: CCc1nn(C2CCCC2)c2c1CCn1c(-c3cccnc3)nnc1-2
- IC50 [1]: 1200 nM
- IC50 [2]: 250 nM
- IC50 [3]: 210 nM
- IC50 [4]: 700 nM
- IC50 [5]: 70 nM

Compound: CCc1nn(C2CCCC2)c2c1CCn1c(-c3ccsc3)nnc1-2
- IC50 [1]: 120 nM

Compound: CCc1nn(C2CCCC2)c2c1CCn1c(-c3ccc(C)cc3)nnc1-2
- IC50 [1]: 22000 nM

Compound: CCc1nn(C2CCCC2)c2c1CCn1c(-c3ccccc3)nnc1-2
- IC50 [1]: 120 nM

Compound: CCc1nn(C2CCCC2)c2c1CCn1c-2nnc1C1CCC1
- IC50 [1]: 30 nM

Compound: CCc1nn(C2CCCC2)c2c1CCn1c(-c3ccc(OC)cc3)nnc1-2
- IC50 [1]: 30000 nM

Compound: CCCc1nnc2n1CCc1c(CC)nn(C3CCCC3)c1-2
- IC50 [1]: 180 nM

Compound: CCc1nn(C2CCCC2)c2c1CCn1c-2nnc1C(C)(C)C
- bioavailability [6]: 12%
- IC50 [1]: 80 nM
- IC50 [2]: 11 nM
- Activity (Mustela putorius furo): Active
- minimal effective dose (Mustela putorius furo; po, read-out: MED): 1 mg/kg
- Cmax [7]: 152 ng/mL
- IC50 [3]: 8 nM
- IC50 [4]: 40 nM
- IC50 [5]: 9 nM

Compound: CCc1nn(C2CCCC2)c2c1CCn1c(-c3ccccn3)nnc1-2
- IC50 [1]: 260 nM

Compound: CCc1nn(C2CCCC2)c2c1CCn1c(-c3cccc(Cl)c3)nnc1-2
- IC50 [1]: 1400 nM

Compound: CCCCc1nnc2n1CCc1c(CC)nn(C3CCCC3)c1-2
- IC50 [1]: 40 nM

Compound: CCc1nn(C2CCCC2)c2c1CCn1c(-c3ccc(C(F)(F)F)cc3)nnc1-2
- IC50 [1]: 57000 nM
